Source: PMC8391421, “Identification of Novel Positive Allosteric Modulators of Neurotrophin Receptors for the Treatment of Cognitive Dysfunction” (Cells, 2021)

Assays:
TrkC = molecular target: T1, TrkC (Homo sapiens, UniProt Q16288); assay: TrkC PathHunter cell-based assay (U2OS-TrkC/p75)
T1 construct: host or cells: U2OS (human osteosarcoma), co-expressing p75
From the text: (§1) The human osteosarcoma cell lines U2OS-TrkA/p75, U2OS-TrkB/p75, U2OS-TrkC/p75, U2OS-ratTrkA/p75, U2OS-FGFR1 (fibroblast growth factor receptor 1) as well as the human embryonic kidney cell line HEK293-IGF1R (insulin-like growth factor 1 receptor) from DiscoverX, Birmingham, United Kingdom, were used in the in vitro experiments. Eagle’s minimum essential medium (EMEM) ATCC #30-2003 from LGC Standards AB, Borås, Sweden; Leibovitz’s L15 medium, RPMI1640, fetal bovine serum, horse serum, penicillin/streptomycin, and Hoechst dye purchased from Invitrogen, Gothenburg, Sweden, were also used. Black poly-D-lysine coated 384-well plates (Viewplate) were purchased from PerkinElmer, Upplands Väsby, Sweden, and white 384-well assay plates(3570) were purchased from Corning, Amsterdam, Netherlands. […] Recombinant intracellular domain (ICD) of TrkA (08-186) and single site biotinylated activated (08-486-20N) or non-activated TrkA (08-486-23N) were obtained from Carna Biosciences, Odense, Denmark. […]
(§2) U2OS cells were maintained subconfluent in EMEM supplemented with 10% FBS and penicillin/streptomycin/hygromycin and G418. […] The functional (complemented) β-gal will hydrolyze a substrate to generate a luminescence signal. The generated luminescence was read using an EnVision plate reader from PerkinElmer, Upplands Väsby, Sweden, or an ID5 plate reader from Molecular Devices, Berkshire, RG41 5TS UK. […]

C57BL/6J mice = assay: Passive avoidance task; type: in vivo, mouse
Protocol: The passive avoidance (PA) task is an associate learning paradigm that is based on Pavlovian fear-conditioning and instrumental conditioning and conducted as previously described in male C57BL/6J mice (n = 7–8/group) from Charles River Laboratories, Sulzfeld, Germany. Vehicle or ACD855 (1, 3 or 10 mg/kg), formulated in 20% DMSO in 0.1 M sodium phosphate buffer pH 8.0, was administered daily (Days 1–4) through s.c. injections (4 mL/kg body weight). ACD856 (0.1, 0.3, 1 or 3 mg/kg) was administered by a single s.c. dose on the training day (Day 4). ACD855, ACD856, ANA-12 (0.5 mg/kg, from Sigma Aldrich, Stockholm, Sweden), physostigmine (0.025 mg/kg, from Sigma Aldrich, Stockholm, Sweden), or vehicle was administered 60 min prior to training, except for when addressing the effects on consolidation, in which case, ACD856 was dosed 5 min after the training session on day 4. Moreover, on the training day (Day 4), scopolamine or the NMDA-antagonist MK-801 (both from Sigma Aldrich, Stockholm, Sweden) at 0.3 mg/kg or vehicle was administered once s.c. 30 min prior to training. No compound was administered on the test day (Day 5), except for when addressing effects on retrieval, in which case, ACD856 was dosed 30 min prior to testing on day 5. Retention latencies and time spent in the bright compartment were determined 24 h after training (Day 5).

[1] = molecular target: T2, insulin-like growth factor 1 receptor (IGF1R) (Homo sapiens, UniProt P08069); assay: IGF1R PathHunter cell-based assay (HEK293-IGF1R)
T2 construct: host or cells: HEK293
T2 sequence (P08069 31-1367): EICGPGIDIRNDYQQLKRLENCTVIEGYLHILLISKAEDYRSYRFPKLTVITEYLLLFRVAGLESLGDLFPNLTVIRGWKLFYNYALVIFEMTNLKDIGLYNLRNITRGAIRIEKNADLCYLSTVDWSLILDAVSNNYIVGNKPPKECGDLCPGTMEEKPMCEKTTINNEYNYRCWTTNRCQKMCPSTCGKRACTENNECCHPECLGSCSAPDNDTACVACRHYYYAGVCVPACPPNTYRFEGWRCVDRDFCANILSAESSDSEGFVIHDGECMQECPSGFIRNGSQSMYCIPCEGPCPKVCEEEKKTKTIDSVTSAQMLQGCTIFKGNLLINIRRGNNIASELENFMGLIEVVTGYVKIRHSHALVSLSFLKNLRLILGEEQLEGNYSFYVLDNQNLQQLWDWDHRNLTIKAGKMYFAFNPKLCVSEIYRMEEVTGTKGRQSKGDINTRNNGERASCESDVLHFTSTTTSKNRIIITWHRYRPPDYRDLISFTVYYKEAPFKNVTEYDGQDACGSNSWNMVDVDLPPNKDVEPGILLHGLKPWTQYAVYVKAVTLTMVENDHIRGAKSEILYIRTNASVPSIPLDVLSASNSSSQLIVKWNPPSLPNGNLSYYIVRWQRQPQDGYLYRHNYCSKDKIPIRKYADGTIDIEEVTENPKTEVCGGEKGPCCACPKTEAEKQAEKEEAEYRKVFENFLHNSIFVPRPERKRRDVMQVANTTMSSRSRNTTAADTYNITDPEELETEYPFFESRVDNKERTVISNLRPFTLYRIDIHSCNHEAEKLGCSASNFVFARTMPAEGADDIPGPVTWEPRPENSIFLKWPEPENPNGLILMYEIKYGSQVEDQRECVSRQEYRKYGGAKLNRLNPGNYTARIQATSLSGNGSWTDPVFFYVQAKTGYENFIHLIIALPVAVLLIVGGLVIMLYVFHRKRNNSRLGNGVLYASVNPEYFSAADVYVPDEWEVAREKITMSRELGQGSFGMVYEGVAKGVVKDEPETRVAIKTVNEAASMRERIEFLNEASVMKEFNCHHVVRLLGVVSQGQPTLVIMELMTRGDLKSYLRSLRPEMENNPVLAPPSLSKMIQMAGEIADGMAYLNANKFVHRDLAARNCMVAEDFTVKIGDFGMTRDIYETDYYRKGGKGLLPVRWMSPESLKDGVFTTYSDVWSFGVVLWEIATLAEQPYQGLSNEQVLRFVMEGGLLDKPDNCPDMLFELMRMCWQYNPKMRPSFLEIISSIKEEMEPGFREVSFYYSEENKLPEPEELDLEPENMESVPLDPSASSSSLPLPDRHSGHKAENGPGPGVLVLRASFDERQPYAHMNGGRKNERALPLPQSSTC
From the text: as §1, §2

T1 sequence (Q16288 32-839): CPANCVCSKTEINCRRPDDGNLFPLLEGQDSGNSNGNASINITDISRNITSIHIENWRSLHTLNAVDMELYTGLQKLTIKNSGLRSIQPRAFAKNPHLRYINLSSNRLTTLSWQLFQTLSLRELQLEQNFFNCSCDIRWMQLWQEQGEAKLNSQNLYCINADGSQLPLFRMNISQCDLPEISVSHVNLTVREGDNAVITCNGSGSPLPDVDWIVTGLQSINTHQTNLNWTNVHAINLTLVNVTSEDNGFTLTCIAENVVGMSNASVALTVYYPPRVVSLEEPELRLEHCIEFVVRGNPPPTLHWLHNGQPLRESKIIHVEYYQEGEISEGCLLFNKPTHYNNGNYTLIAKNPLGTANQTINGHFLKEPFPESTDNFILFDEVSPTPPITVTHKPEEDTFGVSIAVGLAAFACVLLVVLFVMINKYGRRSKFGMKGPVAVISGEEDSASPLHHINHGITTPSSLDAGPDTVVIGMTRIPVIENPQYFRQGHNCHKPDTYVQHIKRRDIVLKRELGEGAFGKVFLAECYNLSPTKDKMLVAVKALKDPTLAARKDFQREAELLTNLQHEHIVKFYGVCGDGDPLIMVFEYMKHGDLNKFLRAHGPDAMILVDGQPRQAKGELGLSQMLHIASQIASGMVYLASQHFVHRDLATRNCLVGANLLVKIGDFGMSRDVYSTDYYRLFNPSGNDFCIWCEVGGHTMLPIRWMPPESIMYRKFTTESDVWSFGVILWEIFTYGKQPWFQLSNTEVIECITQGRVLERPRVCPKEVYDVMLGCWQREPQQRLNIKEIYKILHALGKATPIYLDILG

**Q.** How did the EC50 (TrkC) turn out when `Cc1cc(-n2c(=O)[nH]c(=O)n(C)c2=O)ccc1Oc1ccc(S(=O)(=O)C(F)(F)F)cc1` [ACD855, Toltrazuril-sulfone] was run?
**A.** 800 nM

**Q.** What about the “TrkC Effect (efficacy)” value (TrkC) of the same compound?
**A.** 56%

**Q.** What about the “effect on scopolamine-induced memory impairment (time spent in bright compartment)” value (C57BL/6J mice; 3 or 10 mg/kg s.c. once daily for four days, scopolamine 0.3 mg/kg) of the same compound?
**A.** significantly attenuate

**Q.** What about the “effect of ANA-12 on compound's reversal of scopolamine-induced memory impairment” value (C57BL/6J mice; ANA-12 0.5 mg/kg s.c.) of the same compound?
**A.** blocked by ANA-12

**Q.** What about the “effect on MK-801-induced memory impairment” value (C57BL/6J mice; MK-801 0.3 mg/kg) of the same compound?
**A.** ameliorate

**Q.** What about the “effect of combined administration with physostigmine on scopolamine-induced memory impairment” value (C57BL/6J mice; low dose of compound plus physostigmine 0.025 mg/kg) of the same compound?
**A.** significantly reverse

**Q.** What about the “effect of low dose alone on scopolamine-induced memory impairment” value (C57BL/6J mice; low doses given by themselves, physostigmine 0.025 mg/kg) of the same compound?
**A.** no significant effect

**Q.** What about the “pro-cognitive effects and other behavioral parameters in naive animals” value (C57BL/6J mice; naïve young healthy animals) of the same compound?
**A.** none of the two compounds had any pro-cognitive effects

**Q.** What about the EC50 [1] of the same compound?
**A.** 900 nM

**Q.** And the “IGF1R Effect (efficacy)” value [1]?
**A.** 25%
